# Results published in patent US8940724B2, “Quinoline derivitives and their uses” (Amgen Inc., priority 2009, dated 2015).
# Biological target: T1, PI3Kδ (Homo sapiens, UniProt O00329)
# T1 construct: Full length p110 subunits of PI3k α, β and δ, N-terminally labeled with polyHis tag; polyHis (N); made in house; host or cells: Sf9 insect cells (baculovirus)
# Test: PI3Kδ Alphascreen assay
# Assay type: biochemical
# T1 sequence (O00329 whole entry): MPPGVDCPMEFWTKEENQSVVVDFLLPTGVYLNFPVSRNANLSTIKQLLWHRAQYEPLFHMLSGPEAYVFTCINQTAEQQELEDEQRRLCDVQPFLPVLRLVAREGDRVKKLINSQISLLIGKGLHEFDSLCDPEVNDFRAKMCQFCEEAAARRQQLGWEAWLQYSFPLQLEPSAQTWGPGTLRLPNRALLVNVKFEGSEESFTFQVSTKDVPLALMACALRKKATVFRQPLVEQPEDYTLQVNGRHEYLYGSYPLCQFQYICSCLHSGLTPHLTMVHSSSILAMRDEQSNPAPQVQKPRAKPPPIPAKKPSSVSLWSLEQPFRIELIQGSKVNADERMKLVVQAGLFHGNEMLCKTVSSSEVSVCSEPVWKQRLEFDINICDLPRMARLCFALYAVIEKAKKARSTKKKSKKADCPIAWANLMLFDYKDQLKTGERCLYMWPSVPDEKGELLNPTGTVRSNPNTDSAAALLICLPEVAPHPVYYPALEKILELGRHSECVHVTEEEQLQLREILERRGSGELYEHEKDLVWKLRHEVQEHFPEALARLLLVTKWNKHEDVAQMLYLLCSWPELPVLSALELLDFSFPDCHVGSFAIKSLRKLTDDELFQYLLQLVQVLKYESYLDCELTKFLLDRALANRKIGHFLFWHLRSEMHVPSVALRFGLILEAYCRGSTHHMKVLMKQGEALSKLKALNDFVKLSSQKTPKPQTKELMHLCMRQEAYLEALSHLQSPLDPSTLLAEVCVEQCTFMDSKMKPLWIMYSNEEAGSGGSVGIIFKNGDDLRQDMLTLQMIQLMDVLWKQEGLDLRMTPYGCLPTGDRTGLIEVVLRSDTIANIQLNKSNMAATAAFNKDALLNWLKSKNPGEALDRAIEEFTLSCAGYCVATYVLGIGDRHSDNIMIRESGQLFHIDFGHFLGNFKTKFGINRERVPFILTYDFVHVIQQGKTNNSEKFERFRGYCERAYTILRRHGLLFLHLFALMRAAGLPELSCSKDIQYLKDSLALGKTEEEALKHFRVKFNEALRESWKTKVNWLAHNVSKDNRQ
# T1 sequence (P27986 whole entry partner): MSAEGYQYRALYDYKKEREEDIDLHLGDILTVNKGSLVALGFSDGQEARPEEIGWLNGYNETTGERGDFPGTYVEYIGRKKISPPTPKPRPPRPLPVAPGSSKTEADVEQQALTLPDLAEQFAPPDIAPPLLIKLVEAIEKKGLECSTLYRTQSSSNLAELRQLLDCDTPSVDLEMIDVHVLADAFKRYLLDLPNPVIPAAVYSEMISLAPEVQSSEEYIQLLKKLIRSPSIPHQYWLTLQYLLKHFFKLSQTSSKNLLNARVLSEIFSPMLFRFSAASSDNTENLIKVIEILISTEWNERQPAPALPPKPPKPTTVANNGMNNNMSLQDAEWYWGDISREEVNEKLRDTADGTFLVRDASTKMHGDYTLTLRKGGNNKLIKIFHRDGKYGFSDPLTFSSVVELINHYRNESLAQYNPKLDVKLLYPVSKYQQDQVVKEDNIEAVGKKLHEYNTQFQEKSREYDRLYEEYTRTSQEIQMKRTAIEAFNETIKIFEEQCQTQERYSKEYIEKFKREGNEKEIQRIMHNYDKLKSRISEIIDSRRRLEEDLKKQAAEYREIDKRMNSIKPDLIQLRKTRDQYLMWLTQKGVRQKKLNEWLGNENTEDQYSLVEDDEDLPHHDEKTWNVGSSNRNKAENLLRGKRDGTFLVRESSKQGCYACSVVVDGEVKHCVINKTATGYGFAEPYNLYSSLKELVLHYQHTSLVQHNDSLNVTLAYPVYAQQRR
row,Compound,Ki [nM]
1,"Cc1ccnc(-c2nc3cc(F)cc(F)c3c(Nc3cc(N4CCOCC4)cnc3N3CCOCC3)c2C)c1 [N-(2,5-di-4-morpholinyl-3-pyridinyl)-5,7-difluoro-3-methyl-2-(4-methyl-2-pyridinyl)-4-quinolinamine]",237
2,"Cc1ccncc1-c1nc2cc(F)cc(F)c2c(Nc2cc(N3CCOCC3)cnc2N2CCOCC2)c1C [N-(2,5-di-4-morpholinyl-3-pyridinyl)-5,7-difluoro-3-methyl-2-(4-methyl-3-pyridinyl)-4-quinolinamine]",1.61
3,"Cc1c(-c2cc(-c3ccccc3)ccn2)nc2cc(F)cc(F)c2c1Nc1cc(N2CCOCC2)cnc1N1CCOCC1 [N-(2,5-di-4-morpholinyl-3-pyridinyl)-5,7-difluoro-3-methyl-2-(4-phenyl-2-pyridinyl)-4-quinolinamine]",47.9
4,"CSc1cncc(-c2nc3cc(F)cc(F)c3c(Nc3cc(N4CCOCC4)cnc3N3CCOCC3)c2C)c1 [N-(2,5-di-4-morpholinyl-3-pyridinyl)-5,7-difluoro-3-methyl-2-(5-(methylsulfanyl)-3-pyridinyl)-4-quinolinamine]",11.3
5,"Cc1c(-c2cncc(S(C)(=O)=O)c2)nc2cc(F)cc(F)c2c1Nc1cc(N2CCOCC2)cnc1N1CCOCC1 [N-(2,5-di-4-morpholinyl-3-pyridinyl)-5,7-difluoro-3-methyl-2-(5-(methylsulfonyl)-3-pyridinyl)-4-quinolinamine]",83.8
6,"Cc1ccc(S(C)(=O)=O)c(-c2nc3cc(F)cc(F)c3c(Nc3cc(N4CCOCC4)cnc3N3CCOCC3)c2C)c1 [N-(2,5-di-4-morpholinyl-3-pyridinyl)-5,7-difluoro-3-methyl-2-(5-methyl-2-(methylsulfonyl)phenyl)-4-quinolinamine]",8.22
7,"Cc1cncc(-c2nc3cc(F)cc(F)c3c(Nc3cc(N4CCOCC4)cnc3N3CCOCC3)c2C)c1 [N-(2,5-di-4-morpholinyl-3-pyridinyl)-5,7-difluoro-3-methyl-2-(5-methyl-3-pyridinyl)-4-quinolinamine]",8.92
8,"Cc1c(-c2ccc(N3CCNCC3)nc2)nc2cc(F)cc(F)c2c1Nc1cc(N2CCOCC2)cnc1N1CCOCC1 [N-(2,5-di-4-morpholinyl-3-pyridinyl)-5,7-difluoro-3-methyl-2-(6-(1-piperazinyl)-3-pyridinyl)-4-quinolinamine]",56.3
9,"Cc1c(-c2ccc(N3CCCCC3)nc2)nc2cc(F)cc(F)c2c1Nc1cc(N2CCOCC2)cnc1N1CCOCC1 [N-(2,5-di-4-morpholinyl-3-pyridinyl)-5,7-difluoro-3-methyl-2-(6-(1-piperidinyl)-3-pyridinyl)-4-quinolinamine]",44
10,"Cc1c(-c2ccc(N3CCCC3)nc2)nc2cc(F)cc(F)c2c1Nc1cc(N2CCOCC2)cnc1N1CCOCC1 [N-(2,5-di-4-morpholinyl-3-pyridinyl)-5,7-difluoro-3-methyl-2-(6-(1-pyrrolidinyl)-3-pyridinyl)-4-quinolinamine]",46.8
11,"Cc1c(-c2ccc(N3CCN(C)CC3)nc2)nc2cc(F)cc(F)c2c1Nc1cc(N2CCOCC2)cnc1N1CCOCC1 [N-(2,5-di-4-morpholinyl-3-pyridinyl)-5,7-difluoro-3-methyl-2-(6-(4-methyl-1-piperazinyl)-3-pyridinyl)-4-quinolinamine]",295
12,"Cc1c(-c2ccc(N3CCC(C)CC3)nc2)nc2cc(F)cc(F)c2c1Nc1cc(N2CCOCC2)cnc1N1CCOCC1 [N-(2,5-di-4-morpholinyl-3-pyridinyl)-5,7-difluoro-3-methyl-2-(6-(4-methyl-1-piperidinyl)-3-pyridinyl)-4-quinolinamine]",134
13,"Cc1c(-c2ccc(N3CCOCC3)nc2)nc2cc(F)cc(F)c2c1Nc1cc(N2CCOCC2)cnc1N1CCOCC1 [N-(2,5-di-4-morpholinyl-3-pyridinyl)-5,7-difluoro-3-methyl-2-(6-(4-morpholinyl)-3-pyridinyl)-4-quinolinamine]",67.5
14,"Cc1c(-c2ccc(C(F)(F)F)nc2)nc2cc(F)cc(F)c2c1Nc1cc(N2CCOCC2)cnc1N1CCOCC1 [N-(2,5-di-4-morpholinyl-3-pyridinyl)-5,7-difluoro-3-methyl-2-(6-(trifluoromethyl)-3-pyridinyl)-4-quinolinamine]",23.2
15,"Cc1ccc(-c2nc3cc(F)cc(F)c3c(Nc3cc(N4CCOCC4)cnc3N3CCOCC3)c2C)cn1 [N-(2,5-di-4-morpholinyl-3-pyridinyl)-5,7-difluoro-3-methyl-2-(6-methyl-3-pyridinyl)-4-quinolinamine]",18
16,"Cc1c(-c2ccccn2)nc2c(F)cc(F)cc2c1Nc1cc(N2CCOCC2)cnc1N1CCOCC1 [N-(2,5-di-4-morpholinyl-3-pyridinyl)-6,8-difluoro-3-methyl-2-(2-pyridinyl)-4-quinolinamine]",345
17,"Cc1c(-c2cc([N+](=O)[O-])ccc2F)nc2cc(F)ccc2c1Nc1cc(N2CCOCC2)cnc1N1CCOCC1 [N-(2,5-di-4-morpholinyl-3-pyridinyl)-7-fluoro-2-(2-fluoro-5-nitrophenyl)-3-methyl-4-quinolinamine]",11.2
18,"Cc1ccnc(-c2nc3cc(F)ccc3c(Nc3cc(N4CCOCC4)cnc3N3CCOCC3)c2C(C)C)c1 [N-(2,5-di-4-morpholinyl-3-pyridinyl)-7-fluoro-3-(1-methylethyl)-2-(4-methyl-2-pyridinyl)-4-quinolinamine]",14.3

row,Compound,Ki [nM]
1,"Cc1c(-c2cc([N+](=O)[O-])ccc2S(C)(=O)=O)nc2cc(F)ccc2c1Nc1cc(N2CCOCC2)cnc1N1CCOCC1 [N-(2,5-di-4-morpholinyl-3-pyridinyl)-7-fluoro-3-methyl-2-(2-(methylsulfonyl)-5-nitrophenyl)-4-quinolinamine]",8.25
2,"Cc1ccnc(-c2nc3cc(F)ccc3c(Nc3cc(N4CCOCC4)cnc3N3CCOCC3)c2C)c1 [N-(2,5-di-4-morpholinyl-3-pyridinyl)-7-fluoro-3-methyl-2-(4-methyl-2-pyridinyl)-4-quinolinamine]",35.1
3,"Cc1c(-c2ccccn2)nc2cnccc2c1Nc1cc(N2CCOCC2)ccc1N1CCOCC1 [N-(2,5-di-4-morpholinylphenyl)-3-methyl-2-(2-pyridinyl)-1,7-naphthyridin-4-amine]",876
4,"Cc1c(-c2ccccn2)nc2ncccc2c1Nc1cc(N2CCOCC2)ccc1N1CCOCC1 [N-(2,5-di-4-morpholinylphenyl)-3-methyl-2-(2-pyridinyl)-1,8-naphthyridin-4-amine]",582
5,"Cc1c(-c2ccccn2)nc2cc(F)cc(F)c2c1Nc1cc(N2CCOCC2)ccc1C1=CCOCC1 [N-(2-(3,6-dihydro-2H-pyran-4-yl)-5-(4-morpholinyl)phenyl)-5,7-difluoro-3-methyl-2-(2-pyridinyl)-4-quinolinamine]",7.65
6,"Cc1c(-c2ccccn2)nc2cc(F)cc(F)c2c1Nc1cc(N2CCOCC2)cnc1-c1cccc(OC(F)F)c1 [N-(2-(3-(difluoromethoxy)phenyl)-5-(4-morpholinyl)-3-pyridinyl)-5,7-difluoro-3-methyl-2-(2-pyridinyl)-4-quinolinamine]",2.26
7,"Cc1c(-c2ccccn2)nc2cc(F)cc(F)c2c1Nc1cc(N2CCOCC2)cnc1-c1ccc(OC(F)F)cc1 [N-(2-(4-(difluoromethoxy)phenyl)-5-(4-morpholinyl)-3-pyridinyl)-5,7-difluoro-3-methyl-2-(2-pyridinyl)-4-quinolinamine]",1.25
8,"Cc1c(-c2ccccn2)nc2cc(F)cc(F)c2c1Nc1cc(N2CCOCC2)cnc1Cl [N-(2-chloro-5-(4-morpholinyl)-3-pyridinyl)-5,7-difluoro-3-methyl-2-(2-pyridinyl)-4-quinolinamine]",4.26
9,"COc1ccc(-c2ncc(N3CCOCC3)cc2Nc2c(C)c(-c3ccccc3S(C)(=O)=O)nc3cc(F)cc(F)c23)cn1 [N-(5,7-difluoro-3-methyl-2-(2-(methylsulfonyl)phenyl)-4-quinolinyl)-6′-methoxy-5-(4-morpholinyl)-2,3′-bipyridin-3-amine]",1.76
10,"COc1cncc(-c2ncc(N3CCOCC3)cc2N(C(=O)C(F)(F)F)c2c(C)c(-c3ccccn3)nc3cc(F)cc(F)c23)c1 [N-(5,7-difluoro-3-methyl-2-(2-pyridinyl)-4-quinolinyl)-2,2,2-trifluoro-N-(5′-methoxy-5-(4-morpholinyl)-2,3′-bipyridin-3-yl)-acetamide]",227
11,"COc1ncccc1-c1ncc(N2CCOCC2)cc1Nc1c(C)c(-c2ccccn2)nc2cc(F)cc(F)c12 [N-(5,7-difluoro-3-methyl-2-(2-pyridinyl)-4-quinolinyl)-2′-methoxy-5-(4-morpholinyl)-2,3′-bipyridin-3-amine]",121
12,"COc1cc(-c2ncc(N3CCOCC3)cc2Nc2c(C)c(-c3ccccn3)nc3cc(F)cc(F)c23)ccn1 [N-(5,7-difluoro-3-methyl-2-(2-pyridinyl)-4-quinolinyl)-2′-methoxy-5-(4-morpholinyl)-2,4′-bipyridin-3-amine]",7.93
13,"COc1cnccc1-c1ncc(N2CCOCC2)cc1Nc1c(C)c(-c2ccccn2)nc2cc(F)cc(F)c12 [N-(5,7-difluoro-3-methyl-2-(2-pyridinyl)-4-quinolinyl)-3′-methoxy-5-(4-morpholinyl)-2,4′-bipyridin-3-amine]",7.68
14,"COc1cc(-c2ncc(N3CCOCC3)cc2Nc2c(C)c(-c3ccccn3)nc3cc(F)cc(F)c23)c(F)cn1 [N-(5,7-difluoro-3-methyl-2-(2-pyridinyl)-4-quinolinyl)-5′-fluoro-2′-methoxy-5-(4-morpholinyl)-2,4′-bipyridin-3-amine]",23.5
15,"COc1cncc(-c2ncc(N3CCOCC3)cc2Nc2c(C)c(-c3ccccn3)nc3cc(F)cc(F)c23)c1 [N-(5,7-difluoro-3-methyl-2-(2-pyridinyl)-4-quinolinyl)-5′-methoxy-5-(4-morpholinyl)-2,3′-bipyridin-3-amine]",0.512
16,"CCOc1ccc(-c2ncc(N3CCOCC3)cc2Nc2c(C)c(-c3ccccn3)nc3cc(F)cc(F)c23)cn1 [N-(5,7-difluoro-3-methyl-2-(2-pyridinyl)-4-quinolinyl)-6′-ethoxy-5-(4-morpholinyl)-2,3′-bipyridin-3-amine]",2.62
17,"COc1ccc(-c2ncc(N3CCOCC3)cc2Nc2c(C)c(-c3ccccn3)nc3cc(F)cc(F)c23)cn1 [N-(5,7-difluoro-3-methyl-2-(2-pyridinyl)-4-quinolinyl)-6′-methoxy-5-(4-morpholinyl)-2,3′-bipyridin-3-amine]",1.54
